Assay results as given in patent publication US5399543A, “3-[4-(phenylmethoxy)phenyl]-1-substituted-6-haloalkyl-uracil herbicides” (FMC Corporation, priority 1993, dated 1995).

Experiments:
Blackgrass [1] = test: Postemergence herbicidal activity, blackgrass; format: in vivo, Aloepecurus myosuroides; settings: Alopecurus myosuroides, post-emergence, 0.3 kg/ha, after 17-21 days, read-out: Postemergence herbicidal activity (% control), Blackgrass
Method: (§1) The 3-[4-(phenylmethoxy)phenyl]-1-substituted-6-haloalkyluracil herbicides of this invention were tested for pre- and postemergence herbicidal activity using a variety of crops and weeds. The test plants included soybean (Glycine max var. Williams), field corn (Zea mays var. Agway 425X), wheat (Triticum aestivum var. Wheaton), morningglory (Ipomea lacunosa or Ipomea hederacea), velvetleaf (Abutilon theophrasti), green foxtail (Setaria viridis), Johnsongrass (Sorghum halepense), blackgrass (Aloepecurus myosuroides), common chickweed (Stellaria media), and common cocklebur (Xanthium pensylvanicum).
(§2) For preemergence testing, two disposable fiber flats (8 cm×15 cm×25 cm) for each rate of application of each candidate herbicide were filled to an approximate depth of 6.5 cm with steam-sterilized sandy loam soil. The soil was leveled and impressed with a template to provide five evenly spaced furrows 13 cm long and 0.5 cm deep in each flat. Seeds of soybean, wheat, corn, green foxtail, and johnsongrass were planted in the furrows of the first flat, and seeds of velvetleaf, morningglory, common chickweed, cocklebur, and blackgrass were planted in the furrows of the second flat. The five-row template was employed to firmly press the seeds into place. A topping soil of equal portions of sand and sandy loam soil was placed uniformly on top of each flat to a depth of approximately 0.5 cm. Flats for postemergence testing were prepared in the same manner except that they were planted 8-12 days prior to the preemergence flats and were placed in a greenhouse and watered, thus allowing the seeds to germinate and the foliage to develop.
(§3) In both pre- and postemergence tests, a stock solution of the candidate herbicide was prepared by dissolving 0.27 g of the compound in 20 mL of water/acetone (50/50) containing 0.5% v/v sorbitan monolaurate. For an application rate of 3000 g/ha of herbicide a 10 mL portion of the stock solution was diluted with water/acetone (50/50) to 45 mL.
(§4) The preemergence flats were initially subjected to a light water spray. The four flats were placed two by two along a conveyor belt (i.e., the two preemergence followed by the two postemergence flats). The conveyor belt fed under a spray nozzle mounted about ten inches above the postemergent foliage. The preemergent flats were elevated on the belt so that the soil surface was at the same level below the spray nozzle as the foliage canopy of the postemergent plants. The spray of herbicidal solution was commenced and once stabilized, the flats were passed under the spray at a speed to receive a coverage equivalent of 1000 L/ha. At this coverage the application rates are those shown in the above table for the individual herbicidal solutions. The preemergence flats were watered immediately thereafter, placed in the greenhouse and watered regularly at the soil surface. The postemergence flats were immediately placed in the greenhouse and not watered until 24 hours after treatment with the test solution. Thereafter they were regularly watered at ground level. After 17-21 days the plants were examined and the phytotoxicity data were recorded.
(§5) Herbicidal activity data at selected application rates are given for various compounds of this invention in Table 2 and Table 3. The test compounds are identified by numbers which correspond to those in Table 1.
(§6) Phytotoxicity data were taken as percent control. Percent control was determined by a method similar to the 0 to 100 rating system disclosed in "Research Methods in Weed Science," 2nd ed., B. Truelove, Ed.; Southern Weed Science Society; Auburn University, Auburn, Ala., 1977.

Velvetleaf [2] = test: Preemergence herbicidal activity, velvetleaf; format: in vivo; settings: Abutilon theophrasti, pre-emergence, 0.3 kg/ha, after 17-21 days, read-out: Preemergence herbicidal activity (% control), Velvetleaf
Method: as §1, §2, §3, §4, §5, §6

Chickweed [3] = test: Preemergence herbicidal activity, chickweed; format: in vivo; settings: Stellaria media, pre-emergence, 0.3 kg/ha, after 17-21 days, read-out: Preemergence herbicidal activity (% control), Chickweed
Method: as §1, §2, §3, §4, §5, §6

Morningglory [4] = test: Preemergence herbicidal activity, morningglory; format: in vivo, Ipomea lacunosa or Ipomea hederacea; settings: Ipomoea, pre-emergence, 0.3 kg/ha, after 17-21 days, read-out: Preemergence herbicidal activity (% control), Morningglory
Method: as §1, §2, §3, §4, §5, §6

Cocklebur [5] = test: Postemergence herbicidal activity, cocklebur; format: in vivo, Xanthium pensylvanicum; settings: Xanthium strumarium, post-emergence, 0.3 kg/ha, after 17-21 days, read-out: Postemergence herbicidal activity (% control), Cocklebur
Method: as §1, §2, §3, §4, §5, §6

Johnsongrass [6] = test: Postemergence herbicidal activity, johnsongrass; format: in vivo; settings: Sorghum halepense, post-emergence, 0.3 kg/ha, after 17-21 days, read-out: Postemergence herbicidal activity (% control), Johnsongrass
Method: as §1, §2, §3, §4, §5, §6

Blackgrass [7] = test: Preemergence herbicidal activity, blackgrass; format: in vivo, Aloepecurus myosuroides; settings: Alopecurus myosuroides, pre-emergence, 0.3 kg/ha, after 17-21 days, read-out: Preemergence herbicidal activity (% control), Blackgrass
Method: as §1, §2, §3, §4, §5, §6

Chickweed [8] = test: Postemergence herbicidal activity, chickweed; format: in vivo; settings: Stellaria media, post-emergence, 0.3 kg/ha, after 17-21 days, read-out: Postemergence herbicidal activity (% control), Chickweed
Method: as §1, §2, §3, §4, §5, §6

Velvetleaf [9] = test: Postemergence herbicidal activity, velvetleaf; format: in vivo; settings: Abutilon theophrasti, post-emergence, 0.3 kg/ha, after 17-21 days, read-out: Postemergence herbicidal activity (% control), Velvetleaf
Method: as §1, §2, §3, §4, §5, §6

Green foxtail [10] = test: Postemergence herbicidal activity, green foxtail; format: in vivo; settings: Setaria viridis, post-emergence, 0.3 kg/ha, after 17-21 days, read-out: Postemergence herbicidal activity (% control), Green foxtail
Method: as §1, §2, §3, §4, §5, §6

Soybean [11] = test: Preemergence herbicidal activity, soybean; format: in vivo, Glycine max var. Williams; settings: Glycine max, pre-emergence, 0.3 kg/ha, after 17-21 days, read-out: Preemergence herbicidal activity (% control), Soybean
Method: as §1, §2, §3, §4, §5, §6

Wheat [12] = test: Postemergence herbicidal activity, wheat; format: in vivo, Triticum aestivum var. Wheaton; settings: Triticum aestivum, post-emergence, 0.3 kg/ha, after 17-21 days, read-out: Postemergence herbicidal activity (% control), Wheat
Method: as §1, §2, §3, §4, §5, §6

Corn [13] = test: Preemergence herbicidal activity, corn; format: in vivo, Zea mays var. Agway 425X; settings: Zea mays, pre-emergence, 0.3 kg/ha, after 17-21 days, read-out: Preemergence herbicidal activity (% control), Corn
Method: as §1, §2, §3, §4, §5, §6

Cocklebur [14] = test: Preemergence herbicidal activity, cocklebur; format: in vivo, Xanthium pensylvanicum; settings: Xanthium strumarium, pre-emergence, 0.3 kg/ha, after 17-21 days, read-out: Preemergence herbicidal activity (% control), Cocklebur
Method: as §1, §2, §3, §4, §5, §6

Green foxtail [15] = test: Preemergence herbicidal activity, green foxtail; format: in vivo; settings: Setaria viridis, pre-emergence, 0.3 kg/ha, after 17-21 days, read-out: Preemergence herbicidal activity (% control), Green foxtail
Method: as §1, §2, §3, §4, §5, §6

Soybean [16] = test: Postemergence herbicidal activity, soybean; format: in vivo, Glycine max var. Williams; settings: Glycine max, post-emergence, 0.3 kg/ha, after 17-21 days, read-out: Postemergence herbicidal activity (% control), Soybean
Method: as §1, §2, §3, §4, §5, §6

Corn [17] = test: Postemergence herbicidal activity, corn; format: in vivo, Zea mays var. Agway 425X; settings: Zea mays, post-emergence, 0.3 kg/ha, after 17-21 days, read-out: Postemergence herbicidal activity (% control), Corn
Method: as §1, §2, §3, §4, §5, §6

Johnsongrass [18] = test: Preemergence herbicidal activity, johnsongrass; format: in vivo; settings: Sorghum halepense, pre-emergence, 0.3 kg/ha, after 17-21 days, read-out: Preemergence herbicidal activity (% control), Johnsongrass
Method: as §1, §2, §3, §4, §5, §6

Morningglory [19] = test: Postemergence herbicidal activity, morningglory; format: in vivo, Ipomea lacunosa or Ipomea hederacea; settings: Ipomoea, post-emergence, 0.3 kg/ha, after 17-21 days, read-out: Postemergence herbicidal activity (% control), Morningglory
Method: as §1, §2, §3, §4, §5, §6

Wheat [20] = test: Preemergence herbicidal activity, wheat; format: in vivo, Triticum aestivum var. Wheaton; settings: Triticum aestivum, pre-emergence, 0.3 kg/ha, after 17-21 days, read-out: Preemergence herbicidal activity (% control), Wheat
Method: as §1, §2, §3, §4, §5, §6

| SMILES | activity at 300 g/ha (Blackgrass [1]) | activity at 300 g/ha (Velvetleaf [2]) | activity at 300 g/ha (Chickweed [3]) | activity at 300 g/ha (Morningglory [4]) | activity at 300 g/ha (Cocklebur [5]) | activity at 300 g/ha (Johnsongrass [6]) | activity at 300 g/ha (Blackgrass [7]) | activity at 300 g/ha (Chickweed [8]) | activity at 300 g/ha (Velvetleaf [9]) | activity at 300 g/ha (Green foxtail [10]) | activity at 300 g/ha (Soybean [11]) | activity at 300 g/ha (Wheat [12]) | activity at 300 g/ha (Corn [13]) | activity at 300 g/ha (Cocklebur [14]) | activity at 300 g/ha (Green foxtail [15]) | activity at 300 g/ha (Soybean [16]) | activity at 300 g/ha (Corn [17]) | activity at 300 g/ha (Johnsongrass [18]) | activity at 300 g/ha (Morningglory [19]) | activity at 300 g/ha (Wheat [20]) |
| --- | --- | --- | --- | --- | --- | --- | --- | --- | --- | --- | --- | --- | --- | --- | --- | --- | --- | --- | --- | --- |
| Cn1c(C(F)(F)F)cc(=O)n(-c2ccc(OCc3ccc(Cl)cc3)cc2)c1=O [Compound 4, 3-[4-(4-Chlorophenylmethoxy)phenyl]-1-methyl-6-trifluoromethyluracil] | 0% | 100% | 100% | 90% | 100% | 0% | 50% | 100% | 95% | 80% | 60% | 0% | 30% | 30% | 100% | 95% | 50% | 95% | 100% | 10% |
| Cn1c(C(F)(F)F)cc(=O)n(-c2ccc(OCc3ccc(C(F)(F)F)cc3)cc2)c1=O [Compound 22] | 30% | 100% | 100% | 90% | 40% | 80% | 15% | 15% | 40% | 90% | 90% | 20% | 30% | 50% | 100% | 50% | 20% | 70% | 95% | 0% |
| Cn1c(C(F)(F)F)cc(=O)n(-c2ccc(OCc3c(Cl)cccc3Cl)cc2)c1=O [Compound 7] | 0% | 0% | 0% | 0% | 0% | 0% | 0% | 0% | 0% | 90% | 0% | 0% | 0% | 0% | 0% | 0% | 0% | 0% | 10% | 0% |
| Cn1c(C(F)(F)F)cc(=O)n(-c2ccc(OCc3ccccc3)cc2F)c1=O [Compound 9] | 0% | 100% | 90% | 100% | 100% | 95% | 30% | 80% | 100% | 100% | 85% | 20% | 80% | 50% | 100% | 70% | 70% | 100% | 100% | 40% |
| Cn1c(C(F)(F)F)cc(=O)n(-c2ccc(OCc3cccc(Cl)c3Cl)cc2)c1=O [Compound 42] | 0% | 80% | 0% | 70% | 35% | 50% | 0% | 0% | 90% | 50% | 0% | 0% | 0% | 0% | 60% | 25% | 30% | 30% | – | 0% |
